Our source for the IC50 values is US9227971B2, “Pyrazolo[1,5-a]pyrimidine compounds as mTOR inhibitors” (Merck Sharp & Dohme Corp., priority 2010, dated 2016).

The IC50 is the concentration needed to halve the response being measured. A high value points to lower potency.

The first test concerns phosphorylated AKT Ser473 (pAKT S473), mTORC2 activity, PC3 cells. Kind of test: mTOR target engagement assay, immunofluorescent cell-based, pAKT S473 readout (mTORC2 activity). Conditions: Homo sapiens, PC-3, PC3 cells. How it is done: The target engagement of mTOR kinase inhibitors was evaluated using an immunofluorescent cell-based assay. In this assay, inhibition of mTORC1 activity was measured by the reduction in the level of phosphorylated 4E-BP1^[…] (p4E-BP1 Thr37/46), and inhibition of mTORC2 activity was measured by the reduction of phosphorylated AKT^Ser473 (pAKT S473).
PC3 cells (prostate tumor cell-line that contains a mutation in the tumor suppressor PTEN, that promotes the phosphorylation and activation of AKT and 4E-BP1) were used in the immunofluorescence assay. […] PC3 cells were then treated with 40 μl of the serially diluted test compounds (in 5% fetal bovine serum, F12 medium containing 0.25% DMSO) for ninety minutes at 37° C. The test compound solution was removed, and the plates were washed gently two times with 25 μl phosphate buffered saline (PBS). […] 5% Goat serum in PBS/0.3% Triton was used to block non-specific binding (60 minutes).
The primary antibodies targeting pAKT S473 and p4E-BP1 Thr37/46 were diluted into PBS/0.3% Triton and incubated with the cells overnight at 4° C. […] Plates were washed three times with PBS/0.1% Tween 20 before adding the secondary antibody at a 1:200 dilution.
Finally, the plates were washed three times with PBS/0.1% Tween 20 and the fluorescent intensity was read using an Analyst HT from Molecular Devices.
`CCOC(=O)Nc1ccc(-c2cnn3c(N)c(C(C)=O)c([C@@H]4C[C@H]5CC[C@@H](C4)N5C(=O)CO)nc23)cn1` [Compound 8.77, ethyl 5-(6-acetyl-7-amino-5-((1R,3s,5S)-8-(2-hydroxyacetyl)-8-azabicyclo[3.2.1]octan-3-yl)pyrazolo[1,5-a]pyrimidin-3-yl)pyridin-2-ylcarbamate] showed an IC50 of 100 to 1000 nM. As to `CS(=O)(=O)c1c([C@@H]2C[C@H]3CC[C@@H](C2)N3CC(N)=O)nc2c(-c3ccc(-c4ccccc4)nc3)cnn2c1N` [Compound 8.92, 2-((1R,3s,5S)-3-(7-amino-6-(methylsulfonyl)-3-(6-phenylpyridin-3-yl)pyrazolo[1,5-a]pyrimidin-5-yl)-8-azabicyclo[3.2.1]octan-8-yl)acetamide], the IC50 was in the range of 1000 to 10000 nM. As to `CC(=O)c1c(N2CC3CCC(C2)N3C(=O)[C@@H](C)O)nc2c(-c3ccc(-c4ccccc4)nc3)cnn2c1N` [Compound 8.2, (2R)-1-(3-(6-acetyl-7-amino-3-(6-phenylpyridin-3-yl)pyrazolo[1,5-a]pyrimidin-5-yl)-3,8-diazabicyclo[3.2.1]octan-8-yl)-2-hydroxypropan-1-one], the concentration for half-maximal inhibition (IC50) lay within 100 to 1000 nM. As to `CC(=O)c1c(N2CC3CCC2CN3C(=O)c2nnc[nH]2)nc2c(-c3ccc(-c4ccccc4)nc3)cnn2c1N` (stereo not shown) [Compound 8.3, 1-(5-(5-(4H-1,2,4-triazole-3-carbonyl)-2,5-diazabicyclo[2.2.2]octan-2-yl)-7-amino-3-(6-phenylpyridin-3-yl)pyrazolo[1,5-a]pyrimidin-6-yl)ethanone], the IC50 was 100 to 1000 nM.

For the compound `CC(=O)c1c([C@@H]2C[C@H]3CC[C@@H](C2)N3C(=O)c2nnc[nH]2)nc2c(-c3cnc(C(N)=O)nc3)cnn2c1N` [Compound 8.97, 5-(5-((1R,3s,5S)-8-(4H-1,2,4-triazole-3-carbonyl)-8-azabicyclo[3.2.1]octan-3-yl)-6-acetyl-7-aminopyrazolo[1,5-a]pyrimidin-3-yl)pyrimidine-2-carboxamide], the concentration for half-maximal inhibition (IC50) lay in the range of 1000 to 10000 nM.

The same test, now with this note: Homo sapiens, PC-3, PC3 cells, compound treatment ninety minutes at 37° C.
`CC(=O)c1c([C@@H]2C[C@H]3CC[C@@H](C2)N3C(=O)c2ccn[nH]2)nc2c(-c3ccc(-c4ccc(F)cc4)nc3)cnn2c1N` [Compound 1.1.157, 1-(5-((1R,3s,5S)-8-(1H-pyrazole-5-carbonyl)-8-azabicyclo[3.2.1]octan-3-yl)-7-amino-3-(6-(4-fluorophenyl)pyridin-3-yl)pyrazolo[1,5-a]pyrimidin-6-yl)ethanone] yielded an IC50 of 1 to 100 nM.

Regarding `CC(=O)c1c([C@@H]2C[C@H]3CC[C@@H](C2)N3C(=O)[C@@H](C)O)nc2c(-c3ccc(-c4ccc(F)cc4)nc3)cnn2c1N` [Compound 1.1.158, (R)-1-((1R,3S,5S)-3-(6-acetyl-7-amino-3-(6-(4-fluorophenyl)pyridin-3-yl)pyrazolo[1,5-a]pyrimidin-5-yl)-8-azabicyclo[3.2.1]octan-8-yl)-2-hydroxypropan-1-one], the IC50 fell in the range of 100 to 1000 nM. On the same count and under the same terms, the figure for `CC(=O)c1c([C@@H]2C[C@H]3CC[C@@H](C2)N3C(=O)C(C)(C)O)nc2c(-c3ccc(-c4nccs4)nc3)cnn2c1N` [Compound 1.1.35, 1-((1R,3s,5S)-3-(6-acetyl-7-amino-3-(6-(thiazol-2-yl)pyridin-3-yl)pyrazolo[1,5-a]pyrimidin-5-yl)-8-azabicyclo[3.2.1]octan-8-yl)-2-hydroxy-2-methylpropan-1-one] is 100 to 1000 nM.

The test is the same for the next values; noted with them: Homo sapiens, PC-3, Table 3-1; PC3 cells.
Compound `C[C@@H](O)C(=O)N1[C@@H]2CC[C@H]1C[C@H](c1nc3c(-c4ccc(-c5ccc(F)cc5)nc4)cnn3c(N)c1S(C)(=O)=O)C2` [Compound 3.122, (R)-1-((1R,3S,5S)-3-(7-amino-3-(6-(4-fluorophenyl)pyridin-3-yl)-6-(methylsulfonyl)pyrazolo[1,5-a]pyrimidin-5-yl)-8-azabicyclo[3.2.1]octan-8-yl)-2-hydroxypropan-1-one] yielded a 50% inhibitory concentration (IC50) of 100 to 1000 nM.

In turn, `CS(=O)(=O)c1c([C@@H]2C[C@H]3CC[C@@H](C2)N3C(=O)c2ccn[nH]2)nc2c(-c3ccc(-c4ccc(F)cc4)nc3)cnn2c1N` [Compound 3.121, ((1R,3s,5S)-3-(7-amino-3-(6-(4-fluorophenyl)pyridin-3-yl)-6-(methylsulfonyl)pyrazolo[1,5-a]pyrimidin-5-yl)-8-azabicyclo[3.2.1]octan-8-yl)(1H-pyrazol-5-yl)methanone] had a half-maximal inhibitory concentration (IC50) of 1 to 100 nM.

The same test, now with this note: Homo sapiens, PC-3, Table 6-1; PC3 cells.
Compound `Nc1c(C2CC2)c([C@@H]2C[C@H]3CC[C@@H](C2)N3C(=O)CO)nc2c(-c3cnc(-c4ncc[nH]4)c(F)c3)cnn12` [Compound 6.29, 1-((1R,3s,5S)-3-(7-amino-6-cyclopropyl-3-(5-fluoro-6-(1H-imidazol-2-yl)pyridin-3-yl)pyrazolo[1,5-a]pyrimidin-5-yl)-8-azabicyclo[3.2.1]octan-8-yl)-2-hydroxyethanone] yielded a half-inhibitory concentration (IC50) of 100 to 1000 nM. The same measure, in the same setting: the figure for `CC(=O)c1c([C@@H]2C[C@H]3CC[C@@H](C2)N3C(=O)CO)nc2c(-c3cnc(-c4ncc[nH]4)c(F)c3)cnn2c1N` [Compound 6.28, 1-((1R,3s,5S)-3-(6-acetyl-7-amino-3-(5-fluoro-6-(1H-imidazol-2-yl)pyridin-3-yl)pyrazolo[1,5-a]pyrimidin-5-yl)-8-azabicyclo[3.2.1]octan-8-yl)-2-hydroxyethanone] is 1 to 100 nM; for `CC(=O)c1c([C@@H]2C[C@H]3CC[C@@H](C2)N3C(=O)CO)nc2c(-c3cnc(-c4ncc[nH]4)c(C)c3)cnn2c1N` [Compound 6.33, 1-((1R,3s,5S)-3-(3-(6-(1H-imidazol-2-yl)-5-methylpyridin-3-yl)-6-acetyl-7-aminopyrazolo[1,5-a]pyrimidin-5-yl)-8-azabicyclo[3.2.1]octan-8-yl)-2-hydroxyethanone] it is 1000 to 10000 nM.
